Values after ≈ are worked out from the molar mass of the structure shown. “Also recorded” adds a separate entry of the source.
Key:
St. faecalis CN478 = experiment: MIC against St. faecalis CN478 in vitro; type: cell-based; details: Enterococcus faecalis, read-out: Minimum Inhibitory Concentration (MIC)
Text: (§1) The compounds of the present invention were subjected to standard tests in order to determine the minimum inhibitory concentration in μg/ml needed to inhibit a range of bacterial microorganisms in-vitro.

St. agalactiae CN1143 = experiment: MIC against St. agalactiae CN1143 in vitro; type: cell-based; details: Streptococcus agalactiae, read-out: Minimum Inhibitory Concentration (MIC)
Text: as §1

Staph. aureus CN491 = experiment: MIC against Staph. aureus CN491 in vitro; type: cell-based; details: Staphylococcus aureus, read-out: Minimum Inhibitory Concentration (MIC)
Text: as §1

[1] = system: Vibrio cholerae ATCC14035; experiment: MIC against Vibrio cholerae ATCC14035 in vitro; type: cell-based; details: ATCC14035, read-out: Minimum Inhibitory Concentration (MIC)
Text: as §1

Esch. coli CN314 = experiment: MIC against Esch. coli CN314 in vitro; type: cell-based; details: Escherichia coli, read-out: Minimum Inhibitory Concentration (MIC)
Text: as §1

Pr. mirabilis S2409 = experiment: MIC against Pr. mirabilis S2409 in vitro; type: cell-based; details: Proteus mirabilis, read-out: Minimum Inhibitory Concentration (MIC)
Text: as §1

Meningococci = experiment: MIC against Meningococci in vitro; type: cell-based; details: Meningococci (average 5 strains); read-out: Minimum Inhibitory Concentration (MIC)
Text: as §1

Gonococci = experiment: MIC against Gonococci in vitro; type: cell-based; details: Gonococci (average 17 strains); read-out: Minimum Inhibitory Concentration (MIC)
Text: as §1

B. fragilis = experiment: MIC against B. fragilis in vitro; type: cell-based; details: Bacteroides fragilis; B. fragilis (average 3-10 strains); read-out: Minimum Inhibitory Concentration (MIC)
Text: as §1

Acute toxicity in mouse = details: in vivo, ip; i.p. mouse
Staph. aureus = experiment: MIC vs Staph. aureus (Table 2); type: cell-based; details: Staphylococcus aureus, strain not given
Text: as §1

Salmonella dublin [2] = experiment: Experimental salmonellosis in calves; type: in vivo; details: for Mortality: 5 days from two days after infection, deaths/calves
aerobic bacteria = details: general statement on trimethoprim; cited from earlier work
anaerobic bacteria = details: general statement on trimethoprim; cited from earlier work
Acute toxicity in rat = details: in vivo, po; p.o. rat
[3] = system: four individual gram negative microorganisms and one isolate of S. aureus; experiment: Checkerboard potentiation study with SMX, overall; type: cell-based; details: words
Experimental: 2. Compound Preparation. Compound 1, trimethoprim (TMP) and SMX were each treated with N,N-dimethylformamide for 30 minutes. Dilutions were prepared using sterile distilled water.
3. Testing procedure. Two checkerboard patterns were set-up, namely: 1. SMX and TMP-lactate and 2. SMX and compound 1-lactate. Thirteen, two-fold dilutions of compound 1-lactate were prepared with final concentrations ranging from 6.2 ug/ml to 0.0016 ug/ml. Twenty two, two-fold dilutions of SMX were prepared with final plate concentrations ranging from 31 ug/ml to 0.000016 ug/ml. An analogous checkerboard scheme was set-up for the combination TMP and SMX. Microorganisms were grown on Wellcotest Sensitivity Test Agar containing various concentrations and permutations of compounds.
From the MIC's, a fractional inhibitory concentration (FIC) was calculated. This involves determining a fraction by dividing the MIC of an agent in combination over the MIC of the agent alone (1). If it is less than one, the interaction is synergistic, and if the sum is greater than one, the combination is antagonistic.

Salmonella dublin [4] = details: even at 40 mg/kg/day; cited from earlier work
[5] = 1 mg/kg daily plus SDZ 20 mg/kg

Structure (SMILES) | MIC (St. faecalis CN478) | MIC (St. agalactiae CN1143) | MIC (Staph. aureus CN491) | MIC [1] | MIC (Esch. coli CN314) | MIC (Pr. mirabilis S2409) | MIC (Meningococci) | MIC (Gonococci) | MIC (B. fragilis) | LD50 (Acute toxicity in mouse) | Mortality (Salmonella dublin [2]; [5]) | further results
COc1cc(Cc2cnc(N)nc2N)c2cccnc2c1N.Cl.Cl [Compound 8, 2,4-Diamino-5-(8-amino-7-methoxy-5-quinolylmethyl)-pyrimidine dihydrochloride] | 0.1 µg/mL | 0.1 µg/mL | 0.1 µg/mL | 0.05 µg/mL | 0.1 µg/mL | 1 µg/mL | 3.7 µg/mL | 11.1 µg/mL | 5.2 µg/mL | 500 mg/kg | – | –
COc1cc(Cc2cnc(N)nc2N)cc(OC)c1OC [TMP, 2,4-diamino-5-(3,4,5-trimethoxybenzyl)pyrimidine, reference compound] | 0.1 µg/mL (≈ 0.344 µM) | 0.5 µg/mL (≈ 1.72 µM) | 0.5 µg/mL (≈ 1.72 µM) | 0.5 µg/mL (≈ 1.72 µM) | 0.05 µg/mL (≈ 0.172 µM) | 5 µg/mL (≈ 17.2 µM) | 18 µg/mL (≈ 62 µM) | 37.1 µg/mL (≈ 128 µM) | 4 µg/mL (≈ 13.8 µM) | – | 2/7 | MIC (Staph. aureus): 0.5 µg/mL (≈ 1.72 µM); level of activity against aerobic bacteria (aerobic bacteria): excellent level of activity against most aerobic bacteria; level of activity against anaerobic bacteria (anaerobic bacteria): activity against anaerobic bacteria is less impressive
COc1cc(Cc2cnc(N)nc2N)c2c(c1OC)OCC=C2 [Compound 1, 2,4-Diamino-5-(7,8-dimethoxy-2 --H--1-benzopyran-5-ylmethyl)-pyrimidine] | 0.05 µg/mL (≈ 0.159 µM) | 0.05 µg/mL (≈ 0.159 µM) | 0.05 µg/mL (≈ 0.159 µM) | 0.05 µg/mL (≈ 0.159 µM) | 0.05 µg/mL (≈ 0.159 µM) | 5 µg/mL (≈ 15.9 µM) | 3.1 µg/mL (≈ 9.86 µM) | 10 µg/mL (≈ 31.8 µM) | 1.08 µg/mL (≈ 3.44 µM) | 610 mg/kg | 0/6 | LD50 (Acute toxicity in rat): > 1000 mg/kg; in vitro potentiation with SMX [3]: SMX appears to potentiate compound 1 as well as it does TMP; also recorded: in vitro potentation can be demonstrated between SMX and compound 1 in the case of four individual gram negative microorganisms and one isolate of S. aureus; Mortality (Salmonella dublin [2]; 0.5 mg/kg daily plus SDZ 20 mg/kg): 3/7; reduction of mortality, in words (Salmonella dublin [2]; 0.5 mg/kg plus SDZ 20 mg/kg, in comparison with TMP 1 mg/kg): produced a reduction of mortality comparable with that in group 1 (TMP, 1 mg/kg); efficacy relative to TMP (Salmonella dublin [2]; 1 mg/kg each, plus SDZ 20 mg/kg): clearly superior to TMP at 1 mg/kg; recovery of the survivors (Salmonella dublin [2]; 1 mg/kg plus SDZ 20 mg/kg, in comparison with TMP 1 mg/kg (group 1)): much more rapid recovery of the survivors in group 2; effectiveness relative to TMP (Salmonella dublin [2]; with SDZ 20 mg/kg, conclusion from all groups): approximately twice as effective as TMP in this disease syndrome
Nc1ccc(S(=O)(=O)Nc2ncccn2)cc1 [SDZ] | – | – | – | – | – | – | – | – | – | – | – | effect on mortality, SDZ alone (Salmonella dublin [4]): no effect on mortality in this disease model
